Source: US20250041195A1, “COLLAGEN TYPE III COMPOSITION PREPARED FROM FIBROBLAST EXTRACELLULAR MATRIX” (SINO UNITED (BEIJING) BIOMEDICAL TECHNOLOGY CO., LTD., priority 2022, published 2025)
Where a SMILES comes first, the peptide text is derived from it.

What was measured:
mice = assay: General chronic toxicology study in mice; assay type: in vivo; details: duration ≥6 months, ICH S4 guidelines
Excerpt: The Fmoc polypeptide synthesis method is a conventional method used by a person skilled in the art to prepare a polypeptide. In the case that a person skilled in the art knows that the polypeptide to be prepared needs to comprise an amino acid sequence as shown in EMHKMEPCPMYRRHLG, in combination with the existing Fmoc polypeptide synthesis method, the polypeptide to be protected in the present application may be obtained.

human fibroblasts = assay type: cell-based; details: 48 h, 200 μg/mL
Description: The active polypeptide of the present application with a sequence of EMHKMEPCPMYRRHLG was serially diluted in a 96-well cell culture plate to 5, 10, 25, 50, 100, 200 μg/mL, with 5 duplicated wells per concentration. The above operations were all performed under sterile conditions.
For the passage of the cell lines isolated in Example 1, the cell culture medium was firstly poured out, and the cells were washed twice with 2 mL of PBS. The liquid was discarded, and 1 mL of 0.25% (mass fraction) trypsin solution was added for digestion for 3 min until the cells were completely detached. […] The cell solution was adjusted to a concentration of 5.0×10^5 cells/mL and cultured at 37° C. under 5% carbon dioxide and saturated humidity conditions. After 24 h of passaging, the cells were used for pharmacological activity assay. The above operations were all performed under sterile conditions.
The cells were inoculated into a 96-well cell culture plate, with 100 μL per well, and incubated at 37° C. under 5% carbon dioxide and saturated humidity conditions. […] The absorbance was determined at 570 nm by a microplate reader, with 630 nm as a reference wavelength. The results were recorded and the cell viability was calculated according to the following formula: cell viability=(absorbance A570 of the experimental group/absorbance A570 of the blank control group)×100%.

SMILES: CSCC[C@H](NC(=O)[C@H](CCCCN)NC(=O)[C@H](Cc1c[nH]cn1)NC(=O)[C@H](CCSC)NC(=O)[C@@H](N)CCC(=O)O)C(=O)N[C@@H](CCC(=O)O)C(=O)N1CCC[C@H]1C(=O)N[C@@H](CS)C(=O)N1CCC[C@H]1C(=O)N[C@@H](CCSC)C(=O)N[C@@H](Cc1ccc(O)cc1)C(=O)N[C@@H](CCCNC(=N)N)C(=O)N[C@@H](CCCNC(=N)N)C(=O)N[C@@H](Cc1c[nH]cn1)C(=O)N[C@@H](CC(C)C)C(=O)NCC(=O)O [active polypeptide, EMHKMEPCPMYRRHLG] (H-EMHKMEPCPMYRRHLG-OH)
- toxic side effects in general chronic toxicology study (mice): no significant toxic side effects
- cell viability (human fibroblasts): 265.3%±4.52
